Counter-ions that a name gives are not always drawn. Like-named read-outs stand apart in the source and are kept apart here.
What was measured:
[1] = target: PI3Kγ (p110γ) Recombinant Human Protein (Homo sapiens (Human), UniProt P48736); test: PI3K-γ Scintillation Proximity Assay; type: biochemical; conditions: read-out: PI3Kγ IC50
Method in brief: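 Radiometric SPA readout: […] bound to WGA beads after overnight shaking, IC50 derived from % activity of DMSO control. Reaction used human p110γ, 2 μM ATP, 20 μM PIP2, pH 6.7 MOPS buffer with MgCl2, DTT, CHAPS, 2% DMSO, room temperature.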

[2] = target: PI3Kδ (p110δ/p85α) Recombinant Human Protein (Homo sapiens (Human), UniProt O00329); test: PI3Kδ Scintillation Proximity Assay; type: biochemical
PI3Kδ (p110δ/p85α) Recombinant Human Protein, sequence (O00329 whole entry): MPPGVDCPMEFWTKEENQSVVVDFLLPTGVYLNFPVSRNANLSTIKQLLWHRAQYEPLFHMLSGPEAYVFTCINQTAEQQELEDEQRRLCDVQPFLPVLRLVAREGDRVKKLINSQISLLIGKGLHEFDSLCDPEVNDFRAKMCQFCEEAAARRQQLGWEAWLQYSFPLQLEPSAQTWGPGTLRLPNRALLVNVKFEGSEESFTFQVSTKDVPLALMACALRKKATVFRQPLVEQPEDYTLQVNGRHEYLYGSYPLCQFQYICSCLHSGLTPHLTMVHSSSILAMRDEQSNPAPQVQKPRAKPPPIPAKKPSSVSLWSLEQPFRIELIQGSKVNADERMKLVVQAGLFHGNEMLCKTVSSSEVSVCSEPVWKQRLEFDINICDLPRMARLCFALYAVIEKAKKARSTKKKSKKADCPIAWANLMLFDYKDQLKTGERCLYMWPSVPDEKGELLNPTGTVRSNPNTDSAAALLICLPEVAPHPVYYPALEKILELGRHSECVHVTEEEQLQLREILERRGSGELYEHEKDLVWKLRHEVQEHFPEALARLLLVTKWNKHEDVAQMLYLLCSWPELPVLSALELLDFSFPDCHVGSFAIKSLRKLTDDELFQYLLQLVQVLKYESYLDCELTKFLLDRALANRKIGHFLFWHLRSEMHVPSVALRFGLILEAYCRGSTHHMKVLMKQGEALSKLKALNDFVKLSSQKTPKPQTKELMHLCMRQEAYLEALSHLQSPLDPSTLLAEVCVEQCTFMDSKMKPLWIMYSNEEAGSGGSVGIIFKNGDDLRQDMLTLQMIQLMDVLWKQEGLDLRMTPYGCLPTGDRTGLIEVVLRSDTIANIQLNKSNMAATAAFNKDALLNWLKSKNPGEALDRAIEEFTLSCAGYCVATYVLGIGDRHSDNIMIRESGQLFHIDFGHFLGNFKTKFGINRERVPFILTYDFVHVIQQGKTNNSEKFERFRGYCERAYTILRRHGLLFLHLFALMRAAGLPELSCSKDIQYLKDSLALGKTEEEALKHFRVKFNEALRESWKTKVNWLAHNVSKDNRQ
PI3Kδ (p110δ/p85α) Recombinant Human Protein, sequence (P27986 whole entry partner): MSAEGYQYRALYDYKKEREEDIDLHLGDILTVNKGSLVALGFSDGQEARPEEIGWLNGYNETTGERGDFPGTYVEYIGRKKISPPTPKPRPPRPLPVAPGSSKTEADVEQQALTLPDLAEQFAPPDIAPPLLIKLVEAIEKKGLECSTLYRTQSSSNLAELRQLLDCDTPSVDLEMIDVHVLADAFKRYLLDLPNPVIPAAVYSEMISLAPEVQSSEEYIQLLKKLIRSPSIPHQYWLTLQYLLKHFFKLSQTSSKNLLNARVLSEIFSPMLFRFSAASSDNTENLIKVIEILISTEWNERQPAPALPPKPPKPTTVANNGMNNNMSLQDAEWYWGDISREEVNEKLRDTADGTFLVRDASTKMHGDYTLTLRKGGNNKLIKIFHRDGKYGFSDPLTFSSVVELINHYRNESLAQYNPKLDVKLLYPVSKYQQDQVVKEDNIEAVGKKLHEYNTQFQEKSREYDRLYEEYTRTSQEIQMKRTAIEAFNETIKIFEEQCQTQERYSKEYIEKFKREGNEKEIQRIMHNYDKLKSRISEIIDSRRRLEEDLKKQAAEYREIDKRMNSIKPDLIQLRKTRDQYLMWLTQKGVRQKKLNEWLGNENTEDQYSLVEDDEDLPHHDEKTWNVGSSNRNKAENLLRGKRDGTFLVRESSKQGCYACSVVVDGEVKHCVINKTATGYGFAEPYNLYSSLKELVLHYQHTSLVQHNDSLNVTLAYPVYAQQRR
Method in brief: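 Radiometric read-out: 33P-labelled PIP3 product captured on WGA SPA beads and counted, with IC50 fitted from percent activity relative to DMSO control. Enzyme (3.4 nM) was incubated 120 min at room temperature with 20 μM PIP2 and 2 μM ATP at pH 6.7, 2% DMSO.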

[3] = system: Phosphorylated Ribosomal Protein S6 (RPS6); test: THP-1 RPS6 ELISA Assay; type: cell-based, Human; conditions: THP-1 cells, read-out: PI3Kγ_THP1_RPS6_ELISA IC50
Method in brief: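 IC50 values come from a curve of percent inhibition against log compound concentration, using phospho-RPS6 ELISA (450 nm) on THP-1 lysates. Cells were serum-starved overnight, exposed to compound for 2 h at 37 °C, then challenged 15 min with 10 nM MCP-1.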

PI3Kγ (p110γ) Recombinant Human Protein, sequence (P48736 whole entry): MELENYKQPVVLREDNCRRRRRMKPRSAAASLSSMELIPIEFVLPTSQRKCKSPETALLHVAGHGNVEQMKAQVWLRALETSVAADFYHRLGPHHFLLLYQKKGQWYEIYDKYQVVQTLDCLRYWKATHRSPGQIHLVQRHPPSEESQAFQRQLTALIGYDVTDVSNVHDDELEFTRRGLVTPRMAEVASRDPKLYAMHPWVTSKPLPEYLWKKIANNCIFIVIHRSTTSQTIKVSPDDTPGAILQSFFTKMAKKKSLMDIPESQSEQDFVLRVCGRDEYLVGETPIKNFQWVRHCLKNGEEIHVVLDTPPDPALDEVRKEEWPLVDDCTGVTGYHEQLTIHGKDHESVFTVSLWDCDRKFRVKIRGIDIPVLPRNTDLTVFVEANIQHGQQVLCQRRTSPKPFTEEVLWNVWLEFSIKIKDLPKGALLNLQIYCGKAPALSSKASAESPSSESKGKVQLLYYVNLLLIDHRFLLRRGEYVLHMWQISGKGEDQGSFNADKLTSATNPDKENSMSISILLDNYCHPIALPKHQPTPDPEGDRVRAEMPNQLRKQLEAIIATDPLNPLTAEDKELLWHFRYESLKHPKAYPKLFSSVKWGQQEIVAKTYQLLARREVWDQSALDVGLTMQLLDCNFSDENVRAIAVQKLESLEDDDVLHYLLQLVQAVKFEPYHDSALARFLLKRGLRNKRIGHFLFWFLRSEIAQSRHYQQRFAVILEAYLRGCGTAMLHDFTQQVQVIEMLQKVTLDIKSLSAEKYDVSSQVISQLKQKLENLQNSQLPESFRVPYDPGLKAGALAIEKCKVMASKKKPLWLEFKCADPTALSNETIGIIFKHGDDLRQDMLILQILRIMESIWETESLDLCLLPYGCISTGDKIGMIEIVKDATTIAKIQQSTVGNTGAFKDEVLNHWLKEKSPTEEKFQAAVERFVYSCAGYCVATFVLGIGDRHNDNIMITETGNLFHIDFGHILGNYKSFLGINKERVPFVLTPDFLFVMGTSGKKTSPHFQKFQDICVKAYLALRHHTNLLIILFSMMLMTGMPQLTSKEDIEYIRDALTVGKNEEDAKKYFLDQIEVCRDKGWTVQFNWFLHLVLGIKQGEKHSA

Q: Which results are given for `Cc1ccc(S(=O)(=O)NC23CC(F)(C2)C3)cc1-c1cnc2c(N)nc(C(F)(F)F)cn12` [Example 285, 3-(8-Amino-6-(trifluoromethyl)imidazo[1,2-a]pyrazin-3-yl)-N-(3-fluorobicyclo[1.1.1]pentan-1-yl)-4-methylbenzenesulfonamide trifluoroacetate salt]?
A: IC50 [1]: < 100 nM; IC50 [2]: 100 to 500 nM; IC50 ([3]; Homo sapiens): 100 to 500 nM

Q: For `Cc1ccc(S(=O)(=O)NC23CC(CF)(C2)C3)cc1-c1cnc2c(N)nc(C(F)(F)F)cn12` [Example 286, 3-(8-Amino-6-(trifluoromethyl)imidazo[1,2-a]pyrazin-3-yl)-N-(3-(fluoromethyl)bicyclo[1.1.1]pentan-1-yl)-4-methylbenzenesulfonamide trifluoroacetate salt], which IC50 [1] is on record?
A: Its IC50 is under 100 nM.

Q: And the IC50 [2]?
A: The IC50 was 100 to 500 nM.

Q: And the IC50 ([3]; Homo sapiens)?
A: The IC50 was under 100 nM.

Q: For `Cc1ccc(S(=O)(=O)NC23CC(C#N)(C2)C3)cc1-c1cnc2c(N)nc(C(F)(F)F)cn12` [Example 287, 3-(8-Amino-6-(trifluoromethyl)imidazo[1,2-a]pyrazin-3-yl)-N-(3-cyanobicyclo[1.1.1]pentan-1-yl)-4-methylbenzenesulfonamide], which IC50 [1] is on record?
A: Its IC50 is under 100 nM.

Q: And the IC50 [2]?
A: The IC50 was 100 to 500 nM.

Q: And the IC50 ([3]; Homo sapiens)?
A: Its IC50 is under 100 nM.

Q: With `Cc1ccc(S(=O)(=O)NC23CC(C(N)=O)(C2)C3)cc1-c1cnc2c(N)nc(C(F)(F)F)cn12` [Example 288, 3-(3-(8-Amino-6-(trifluoromethyl)imidazo[1,2-a]pyrazin-3-yl)-4-methylphenylsulfonamido)bicyclo[1.1.1]pentane-1-carboxamide trifluoroacetate salt] as the compound, how does the IC50 [1] read?
A: The IC50 was under 100 nM.

Q: What about the IC50 [2] of the same compound?
A: The IC50 was 100 to 500 nM.

Q: What about the IC50 ([3]; Homo sapiens) of the same compound?
A: Its IC50 is 100 to 500 nM.

Q: How did the IC50 [1] turn out when `Cc1ccc(S(=O)(=O)NC23CC(CN4CCOCC4)(C2)C3)cc1-c1cnc2c(N)nc(C(F)(F)F)cn12` [Example 289, 3-(8-Amino-6-(trifluoromethyl)imidazo[1,2-a]pyrazin-3-yl)-4-methyl-N-(3-(morpholinomethyl)bicyclo[1.1.1]pentan-1-yl)benzenesulfonamide trifluoroacetate salt] was run?
A: The IC50 was under 100 nM.

Q: And the IC50 [2]?
A: The IC50 was 100 to 500 nM.

Q: What about the IC50 ([3]; Homo sapiens) of the same compound?
A: Its IC50 is 100 to 500 nM.

Q: What does the source list for `Cc1ccc(S(=O)(=O)NC23CC(C(=O)O)(C2)C3)cc1-c1cnc2c(N)nc(C(F)(F)F)cn12` [Example 290, 3-(3-(8-Amino-6-(trifluoromethyl)imidazo[1,2-a]pyrazin-3-yl)-4-methylphenylsulfonamido)bicyclo[1.1.1]pentane-1-carboxylic acid trifluoroacetate salt]?
A: IC50 [1]: < 100 nM; IC50 [2]: 500 to 2000 nM; IC50 ([3]; Homo sapiens): > 1000 nM

Q: How did the IC50 [1] turn out when `Cc1ccc(S(=O)(=O)NC23CCC(C(N)=O)(C2)C3)cc1-c1cnc2c(N)nc(C(F)(F)F)cn12` [Example 291, 4-(3-(8-Amino-6-(trifluoromethyl)imidazo[1,2-a]pyrazin-3-yl)-4-methylphenylsulfonamido)bicyclo[2.1.1]hexane-1-carboxamide trifluoroacetate salt] was run?
A: The IC50 was under 100 nM.

Q: What about the IC50 [2] of the same compound?
A: The IC50 was 100 to 500 nM.

Q: What about the IC50 ([3]; Homo sapiens) of the same compound?
A: The IC50 was 500 to 1000 nM.

Q: How did the IC50 [1] turn out when `Cc1ccc(S(=O)(=O)NC23CC(c4nnn[nH]4)(C2)C3)cc1-c1cnc2c(N)nc(C(F)(F)F)cn12` [Example 292, N-(3-(1H-Tetrazol-5-yl)bicyclo[1.1.1]pentan-1-yl)-3-(8-amino-6-(trifluoromethyl)imidazo[1,2-a]pyrazin-3-yl)-4-methylbenzenesulfonamide trifluoroacetate salt] was run?
A: Its IC50 is under 100 nM.

Q: And the IC50 [2]?
A: Its IC50 is 500 to 2000 nM.

Q: And the IC50 ([3]; Homo sapiens)?
A: The IC50 was over 1000 nM.

Q: How did the IC50 [1] turn out when `Cc1noc(C23CC(NS(=O)(=O)c4ccc(C)c(-c5cnc6c(N)nc(C(F)(F)F)cn56)c4)(C2)C3)n1` [Example 293, 3-(8-Amino-6-(trifluoromethyl)imidazo[1,2-a]pyrazin-3-yl)-4-methyl-N-(3-(3-methyl-1,2,4-oxadiazol-5-yl)bicyclo[1.1.1]pentan-1-yl)benzenesulfonamide trifluoroacetate salt] was run?
A: The IC50 was under 100 nM.

Q: And the IC50 [2]?
A: Its IC50 is 100 to 500 nM.

Q: And the IC50 ([3]; Homo sapiens)?
A: The IC50 was 100 to 500 nM.

Q: `Cc1ccc(S(=O)(=O)NC23CC(c4nccn4C)(C2)C3)cc1-c1cnc2c(N)nc(C(F)(F)F)cn12` [Example 294, 3-(8-Amino-6-(trifluoromethyl)imidazo[1,2-a]pyrazin-3-yl)-4-methyl-N-(3-(1-methyl-1H-imidazol-2-yl)bicyclo[1.1.1]pentan-1-yl)benzenesulfonamide trifluoroacetate salt] was tested. Which IC50 [1] did it give?
A: Its IC50 is under 100 nM.

Q: And the IC50 [2]?
A: The IC50 was 500 to 2000 nM.

Q: And the IC50 ([3]; Homo sapiens)?
A: Its IC50 is over 1000 nM.

Q: Which IC50 [1] does the source give for `Cc1ccc(S(=O)(=O)NC23CC(c4ncno4)(C2)C3)cc1-c1cnc2c(N)nc(C(F)(F)F)cn12` [Example 295, N-(3-(1,2,4-Oxadiazol-5-yl)bicyclo[1.1.1]pentan-1-yl)-3-(8-amino-6-(trifluoromethyl)imidazo[1,2-a]pyrazin-3-yl)-4-methylbenzenesulfonamide trifluoroacetate salt] here?
A: Its IC50 is under 100 nM.

Q: What about the IC50 [2] of the same compound?
A: Its IC50 is 500 to 2000 nM.

Q: What about the IC50 ([3]; Homo sapiens) of the same compound?
A: Its IC50 is over 1000 nM.

Q: Which IC50 [1] does the source give for `Cc1ccc(S(=O)(=O)NC23CC(N4CCOCC4)(C2)C3)cc1-c1cnc2c(N)nc(C(F)(F)F)cn12` [Example 296, 3-(8-Amino-6-(trifluoromethyl)imidazo[1,2-a]pyrazin-3-yl)-4-methyl-N-(3-morpholinobicyclo[1.1.1]pentan-1-yl)benzenesulfonamide trifluoroacetate salt] here?
A: Its IC50 is under 100 nM.

Q: What about the IC50 [2] of the same compound?
A: The IC50 was 500 to 2000 nM.

Q: What about the IC50 ([3]; Homo sapiens) of the same compound?
A: The IC50 was 100 to 500 nM.

Q: Which results are given for `Cc1ccc(S(=O)(=O)N(C)[C@H]2CN(C)C[C@@H]2O)cc1-c1cnc2c(N)nc(C(F)(F)F)cn12` [Example 299, 3-(8-amino-6-(trifluoromethyl)imidazo[1,2-a]pyrazin-3-yl)-N-((3S,4S)-4-hydroxy-1-methylpyrrolidin-3-yl)-N,4-dimethylbenzenesulfonamide]?
A: IC50 [1]: < 100 nM; IC50 [2]: 100 to 500 nM; IC50 ([3]; Homo sapiens): 100 to 500 nM

Q: What does the source list for `Cc1ccc(S(=O)(=O)N(CCC#N)C2CCCCC2)cc1-c1cnc2c(N)nc(C(F)(F)F)cn12` [Example 301, 3-(8-amino-6-(trifluoromethyl)imidazo[1,2-a]pyrazin-3-yl)-N-(2-cyanoethyl)-N-cyclohexyl-4-methylbenzenesulfonamide]?
A: IC50 [1]: < 100 nM; IC50 [2]: 500 to 2000 nM; IC50 ([3]; Homo sapiens): 100 to 500 nM

Q: `Cc1ccc(S(=O)(=O)N2CC[C@H](N)C2)cc1-c1cnc2c(N)nc(C(F)(F)F)cn12` [Example 305, (S)-3-(5-((3-aminopyrrolidin-1-yl)sulfonyl)-2-methylphenyl)-6-(trifluoromethyl)imidazo[1,2-a]pyrazin-8-amine bis(trifluoroacetate)] was tested. Which IC50 [1] did it give?
A: Its IC50 is under 100 nM.

Q: What about the IC50 [2] of the same compound?
A: The IC50 was 100 to 500 nM.

Q: And the IC50 ([3]; Homo sapiens)?
A: Its IC50 is over 1000 nM.

Q: How did the IC50 [1] turn out when `Cc1ccc(S(=O)(=O)N2C[C@@H](C)C[C@@H](N)C2)cc1-c1cnc2c(N)nc(C(F)(F)F)cn12` [Example 306, 3-(5-(((3R,5S)-3-amino-5-methylpiperidin-1-yl)sulfonyl)-2-methylphenyl)-6-(trifluoromethyl)imidazo[1,2-a]pyrazin-8-amine] was run?
A: Its IC50 is under 100 nM.

Q: And the IC50 [2]?
A: Its IC50 is under 100 nM.

Q: What about the IC50 ([3]; Homo sapiens) of the same compound?
A: The IC50 was under 100 nM.

Q: With `Cc1ccc(S(=O)(=O)N2C[C@H](N)C[C@H](C(F)(F)F)C2)cc1-c1cnc2c(N)nc(C(F)(F)F)cn12` [Example 307, 3-(5-(((3R,5S)-3-amino-5-(trifluoromethyl)piperidin-1-yl)sulfonyl)-2-methylphenyl)-6-(trifluoromethyl)imidazo[1,2-a]pyrazin-8-amine] as the compound, how does the IC50 [1] read?
A: Its IC50 is under 100 nM.

Q: And the IC50 [2]?
A: The IC50 was under 100 nM.

Q: What about the IC50 ([3]; Homo sapiens) of the same compound?
A: The IC50 was 100 to 500 nM.

Q: Which IC50 [1] does the source give for `Cc1ccc(S(=O)(=O)N2CC[C@@H](F)[C@@H](N)C2)cc1-c1cnc2c(N)nc(C(F)(F)F)cn12` [Example 308, 3-(5-(((3S,4R)-3-amino-4-fluoropiperidin-1-yl)sulfonyl)-2-methylphenyl)-6-(trifluoromethyl)imidazo[1,2-a]pyrazin-8-amine] here?
A: The IC50 was under 100 nM.

Q: What about the IC50 [2] of the same compound?
A: Its IC50 is under 100 nM.

Q: What about the IC50 ([3]; Homo sapiens) of the same compound?
A: Its IC50 is under 100 nM.

Q: Which IC50 [1] does the source give for `Cc1ccc(S(=O)(=O)N2CCC[C@@H](N(C)C)C2)cc1-c1cnc2c(N)nc(C(F)(F)F)cn12` [Example 309, (R)-3-(5-((3-(dimethylamino)piperidin-1-yl)sulfonyl)-2-methylphenyl)-6-(trifluoromethyl)imidazo[1,2-a]pyrazin-8-amine] here?
A: The IC50 was under 100 nM.

Q: And the IC50 [2]?
A: Its IC50 is 500 to 2000 nM.

Q: And the IC50 ([3]; Homo sapiens)?
A: Its IC50 is 100 to 500 nM.

Q: How did the IC50 [1] turn out when `Cc1ccc(S(=O)(=O)N[C@H]2CC[C@H](O)CC2)cc1-c1cnc2c(N)nc(C(F)(F)F)cn12` [Example 310, 3-(8-Amino-6-(trifluoromethyl)imidazo[1,2-a]pyrazin-3-yl)-N-(trans-4-hydroxycyclohexyl)-4-methylbenzenesulfonamide] was run?
A: Its IC50 is under 100 nM.

Q: What about the IC50 [2] of the same compound?
A: Its IC50 is 100 to 500 nM.

Q: What about the IC50 ([3]; Homo sapiens) of the same compound?
A: Its IC50 is under 100 nM.

Q: Which results are given for `Cc1ccc(S(=O)(=O)N[C@H]2CC[C@H](CO)OC2)cc1-c1cnc2c(N)nc(C(F)(F)F)cn12` [Example 311]?
A: IC50 [1]: < 100 nM; IC50 [2]: 100 to 500 nM; IC50 [3]: < 100 nM

Q: With `Cc1ccc(S(=O)(=O)N2CCCC(C)(CO)C2)cc1-c1cnc2c(N)nc(C(F)(F)F)cn12` (stereo not drawn) [Example 312, (1-((3-(8-Amino-6-(trifluoromethyl)imidazo[1,2-a]pyrazin-3-yl)-4-methylphenyl)sulfonyl)-3-methylpiperidin-3-yl)methanol] as the compound, how does the IC50 [1] read?
A: Its IC50 is under 100 nM.

Q: What about the IC50 [2] of the same compound?
A: Its IC50 is 100 to 500 nM.

Q: What about the IC50 ([3]; Homo sapiens) of the same compound?
A: The IC50 was 100 to 500 nM.

Q: `Cc1ccc(S(=O)(=O)N2CCCC(C#N)C2)cc1-c1cnc2c(N)nc(C(F)(F)F)cn12` (stereo not drawn) [Example 314, 1-((3-(8-Amino-6-(trifluoromethyl)imidazo[1,2-a]pyrazin-3-yl)-4-methylphenyl)sulfonyl)piperidine-3-carbonitrile] was tested. Which IC50 [1] did it give?
A: The IC50 was under 100 nM.

Q: And the IC50 [2]?
A: Its IC50 is 100 to 500 nM.

Q: What about the IC50 ([3]; Homo sapiens) of the same compound?
A: Its IC50 is 100 to 500 nM.

From patent US10479795B2 (Incyte Corporation, priority 2016, dated 2019)
